Consider 3 compounds from patent US7045544B2, “Substituted 2,5-diamidoindoles as ECE inhibitors for the treatment of cardiovascular diseases” (Bayer HealthCare AG, priority 2001, dated 2006).

The assay has as its target T1, endothelin-converting enzyme (ECE) (Homo sapiens, UniProt P42892).
T1 construct: The ECE activity for identifying the substances described herein originates from the endothelial cell line EA.hy926; endogenous in cells; host or cells: EA.hy926 endothelial cells (intact, confluent)
T1 sequence (P42892 1-770): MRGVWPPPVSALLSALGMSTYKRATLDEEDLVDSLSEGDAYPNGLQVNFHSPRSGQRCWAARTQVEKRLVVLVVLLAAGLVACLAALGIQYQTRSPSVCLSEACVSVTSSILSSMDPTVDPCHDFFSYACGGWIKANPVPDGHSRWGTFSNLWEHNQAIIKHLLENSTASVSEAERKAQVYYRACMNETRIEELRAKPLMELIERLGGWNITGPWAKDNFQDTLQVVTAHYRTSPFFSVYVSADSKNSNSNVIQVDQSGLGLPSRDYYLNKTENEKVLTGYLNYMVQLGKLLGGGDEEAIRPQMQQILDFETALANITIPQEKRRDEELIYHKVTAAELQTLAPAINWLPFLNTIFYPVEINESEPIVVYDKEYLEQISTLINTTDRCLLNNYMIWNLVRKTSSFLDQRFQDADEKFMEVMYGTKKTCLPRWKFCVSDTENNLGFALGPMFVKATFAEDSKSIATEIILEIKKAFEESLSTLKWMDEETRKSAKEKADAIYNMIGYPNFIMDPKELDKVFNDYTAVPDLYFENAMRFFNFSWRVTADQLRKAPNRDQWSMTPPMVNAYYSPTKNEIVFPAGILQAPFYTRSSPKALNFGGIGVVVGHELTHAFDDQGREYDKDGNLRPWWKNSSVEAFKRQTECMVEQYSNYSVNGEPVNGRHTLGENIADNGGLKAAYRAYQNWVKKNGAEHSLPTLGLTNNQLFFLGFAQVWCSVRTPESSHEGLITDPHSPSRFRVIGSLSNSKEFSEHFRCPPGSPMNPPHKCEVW
The assay can be described thus: cell-based. The conditions noted are these: ECE activity of endothelial cell line EA.hy926; 1–100 nM bET; 100 μM thiophane added; ET-1 formed measured by EIA. The procedure:
Functional in Vitro Assay
The ECE activity for identifying the substances described herein originates from the endothelial cell line EA.hy926. The ECE-inhibitory action of the compounds in this invention is tested as described below:
For 12–48 h, EA.hy296 cells are cultivated in a 384-well cell culture dish in 80 μl of cell culture medium (DMEM supplemented with 10% FCS, 2 mM glutamine, 10 mM HEPES, 1 mM sodium pyruvate and 1×HAT (Gibco 21060-017)) in a humid atmosphere (100% atmospheric humidity) enriched with 7% v/v of CO2 at 37° C. After confluence has been reached, and immediately prior to the actual beginning of measurement, the supernatant of the cell culture is pipetted off and replaced by 40 or 80 μl of the same medium to which 1–100 nM bET has been added. After 30–120 minutes under otherwise identical cell culture conditions, the supernatant is pipetted off. Cellular components are removed by centrifugation in a customary bench-top centrifuge (10 000 rpm; 2 minutes). The resulting clear supernatant is either used directly as described below or shock-frozen in dry ice and then stored at −20° C. Directly removed supernatant or thawed, stored supernatant are measured in an enzyme immunoassay (EIA).
To determine the inhibitory activity of ECE inhibitors, EA.hy296 cells are incubated with the test substance in a concentration between 0.001–5 μM under the conditions described above. To minimize possible interference by neutral endopeptidase (NEP24.11), 100 μM of thiophane are added during the bET incubation of the EA.hy926 cells.
The proportion of the ET-1 formed by ECE cleavage is measured as follows: depending on the amount of converted bET, the samples are, prior to use, diluted 2–100-fold with EIA. An appropriate dilution of the cell supernatant is incubated in 100 μl portions for 14–18 hours in the sample tubes of the EIA kit Biomedica B1-20052.

Counter-ions that a name gives are not always drawn.

`CC(C)(C)CC(=O)Nc1ccc2c(c1)cc(C(=O)Nc1ccc(NS(C)(=O)=O)cc1)n2Cc1ccccc1F` [Example 58] showed a 50% inhibitory concentration (IC50) of 1600 nM.
The value for `CC(=O)Nc1ccc(NC(=O)c2cc3cc(NC(=O)CC(C)(C)C)ccc3n2Cc2ccccc2F)cc1` [Example 60] was 700 nM; that for `CC(C)(C)CC(=O)Nc1ccc2c(c1)cc(C(=O)Nc1ccc(N)cc1)n2Cc1ccccc1F` [Example 57, N-(4-Aminophenyl)-5-[(3,3-dimethylbutanoyl)amino]-1-(2-fluorobenzyl)-1H-indole-2-carboxamide hydrochloride] was 1500 nM.
